Results reported in ChEMBL document CHEMBL1130441, “Studies on -lactam antibiotics. Synthesis and antibacterial activity of novel 1-methylcarbapenems related to FR21818: 5-membered ring analogs” (1997).
Values after ≈ are worked out from the molar mass of the structure shown.

How the values were obtained:
Escherichia coli = experiment: In vitro antibacterial activity of compound was measured on Escherichia coli NIHJ JC-2; format: functional
Proteus vulgaris = experiment: In vitro antibacterial activity of compound was measured on Proteus vulgaris IAM 1025; format: functional
Pseudomonas aeruginosa [1] = experiment: In vitro antibacterial activity of compound was measured on Pseudomonas aeruginosa IAM 1095; format: functional
Staphylococcus aureus [2] = experiment: In vitro antibacterial activity of compound was measured on Staphylococcus aureus 209P JC-1; format: functional
Staphylococcus aureus [3] = experiment: In vitro antibacterial activity of compound was measured on Staphylococcus aureus 3004(MRSA); format: functional
Pseudomonas aeruginosa [4] = experiment: In vitro antibacterial activity of compound was measured on Pseudomonas aeruginosa 26; format: functional
[5] = molecular target: Dipeptidase 1 (Homo sapiens) (UniProt P16444); experiment: In vitro rate of hydrolysis by human dehydropeptidase-1 compared to meropenem.
Chain of Dipeptidase 1 (Homo sapiens) (P16444 whole entry, looked up): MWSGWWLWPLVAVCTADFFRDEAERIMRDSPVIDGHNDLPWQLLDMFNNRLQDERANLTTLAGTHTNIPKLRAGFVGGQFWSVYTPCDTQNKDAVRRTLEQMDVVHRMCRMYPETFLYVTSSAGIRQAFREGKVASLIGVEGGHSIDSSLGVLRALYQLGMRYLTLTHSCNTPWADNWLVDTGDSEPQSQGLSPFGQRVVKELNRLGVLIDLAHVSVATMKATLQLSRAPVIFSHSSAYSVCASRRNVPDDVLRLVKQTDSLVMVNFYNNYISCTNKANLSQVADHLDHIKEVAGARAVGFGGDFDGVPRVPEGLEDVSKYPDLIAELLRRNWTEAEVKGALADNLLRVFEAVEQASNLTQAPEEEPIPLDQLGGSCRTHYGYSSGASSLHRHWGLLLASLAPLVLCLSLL

Mus musculus [6] = experiment: Protective activity of compound was measured against lethal systemic infection by Staphylococcus aureus 8008 (MRSA) in ICR mice at 1 hr after subcutaneous administration; format: functional; conditions: sc
Mus musculus [7] = experiment: Protective activity of compound against lethal systemic infection by Staphylococcus aureus 8008 (MRSA) in ICR mice at 1 hr after subcutaneous administration; format: functional; conditions: sc
Mus musculus [8] = experiment: Protective activity of compound against lethal systemic infection by Staphylococcus aureus 8008 (MRSA) in ICR mice at 1 hr after sc administration; format: functional

Structure (SMILES)	MIC (Escherichia coli) [µg/mL]	MIC (Proteus vulgaris) [µg/mL]	MIC (Pseudomonas aeruginosa [1]) [µg/mL]	MIC (Staphylococcus aureus [2]) [µg/mL]	MIC (Staphylococcus aureus [3]) [µg/mL]	MIC (Pseudomonas aeruginosa [4]) [µg/mL]	DHP-I stability [5]	ED50 (Mus musculus [6]) [mg/kg]	ED50 (Mus musculus [7]) [mg/kg]	ED50 (Mus musculus [8]) [mg/kg]
C[C@@H](O)[C@H]1C(=O)N2C(C(=O)O)=C(S[C@@H]3CN[C@H](Cc4c(CO)c[n+](C)n4C)C3)[C@H](C)[C@H]12.[Cl-]	0.2	0.78	3.13	0.1	25	0.39	0.28	–	–	–
C[C@@H](O)[C@H]1C(=O)N2C(C(=O)O)=C(S[C@@H]3CN[C@H](Cc4cc[n+](CCO)n4C)C3)[C@H](C)[C@H]12.[Cl-]	0.2	1.56	6.25	0.05	6.25	0.2	0.26	5.45	–	–
CN[C@H](CC(C)C)C(=O)N[C@H]1C(=O)N[C@@H](CC(N)=O)C(=O)N[C@H]2C(=O)N[C@H]3C(=O)N[C@H](C(=O)N[C@H](C(=O)O)c4cc(O)cc(O)c4-c4cc3ccc4O)[C@H](O)c3ccc(c(Cl)c3)Oc3cc2cc(c3O[C@@H]2O[C@H](CO)[C@@H](O)[C@H](O)[C@H]2O[C@H]2C[C@](C)(N)[C@H](O)[C@H](C)O2)Oc2ccc(cc2Cl)[C@H]1O [VANCOMYCIN]	–	–	–	–	–	–	–	2.73	–	–
C[C@@H](O)[C@H]1C(=O)N2C(C(=O)O)=C(SCCNC=N)C[C@H]12 [IMIPENEM ANHYDROUS]	–	–	–	–	–	–	–	–	7.02	–
C[C@@H](O)[C@H]1C(=O)N2C(C(=O)O)=C(S[C@@H]3CN[C@H](Cc4n(C)cc[n+]4C)C3)[C@H](C)[C@H]12.[Cl-]	0.1	0.78	12.5	0.1	6.25	0.39	0.3	–	–	–
C[C@@H](O)[C@H]1C(=O)N2C(C(=O)O)=C(S[C@@H]3CN[C@H](Cc4cn5[n+](c4)CCC5)C3)[C@H](C)[C@H]12.[Cl-]	0.1	–	3.13	–	–	–	0.21	–	–	–
C[C@@H](O)[C@H]1C(=O)N2C(C(=O)O)=C(S[C@@H]3CN[C@H](Cc4cn(C)[n+](C)c4CO)C3)[C@H](C)[C@H]12.[Cl-]	0.39	1.56	6.25	0.05	6.25	0.39	0.24	–	–	–
CC1(C)C[C@@H]1C(=O)N/C(=C\CCCCSC[C@H](N)C(=O)O)C(=O)O [CILASTATIN]	–	–	–	–	–	–	–	–	–	7.88
C[C@@H](O)[C@H]1C(=O)N2C(C(=O)[O-])=C(SC3Cn4cnc[n+]4C3)[C@H](C)[C@H]12 (stereo not given in full) [BIAPENEM]	0.39 (≈ 1.11 µM)	3.13 (≈ 8.93 µM)	1.56 (≈ 4.45 µM)	0.05 (≈ 0.143 µM)	25 (≈ 71.3 µM)	0.2 (≈ 0.571 µM)	0.15	–	–	35.2
C[C@@H](O)[C@H]1C(=O)N2C(C(=O)O)=C(S[C@@H]3CN[C@H](Cc4n(C)nc[n+]4C)C3)[C@H](C)[C@H]12.[Cl-]	0.2	0.78	12.5	0.1	12.5	1.56	0.22	–	–	–
C[C@@H](O)[C@H]1C(=O)N2C(C(=O)O)=C(S[C@@H]3CN[C@H](C(=O)N(C)C)C3)[C@H](C)[C@H]12 [MEROPENEM]	0.025 (≈ 0.0652 µM)	0.1 (≈ 0.261 µM)	1.56 (≈ 4.07 µM)	0.1 (≈ 0.261 µM)	25 (≈ 65.2 µM)	0.2 (≈ 0.522 µM)	1	–	–	7.88
C[C@@H](O)[C@H]1C(=O)N2C(C(=O)O)=C(S[C@@H]3CN[C@H](Cc4cn(C)[n+](CCO)c4)C3)[C@H](C)[C@H]12.[Cl-]	0.39	1.56	1.56	0.05	12.5	0.39	0.2	–	–	–
C[C@@H](O)[C@H]1C(=O)N2C(C(=O)O)=C(S[C@@H]3CN[C@H](Cc4cn(C)[n+](C)c4)C3)[C@H](C)[C@H]12.[Cl-]	0.2	1.56	3.13	0.05	3.13	0.39	0.28	–	–	–
C[C@@H](O)[C@H]1C(=O)N2C(C(=O)O)=C(S[C@@H]3CN[C@H](Cc4cc(CO)[n+](C)n4C)C3)[C@H](C)[C@H]12.[Cl-]	0.1	–	6.25	–	–	–	–	–	–	–

Continued, in another order:

MIC (Escherichia coli) [µg/mL]	MIC (Proteus vulgaris) [µg/mL]	MIC (Pseudomonas aeruginosa [1]) [µg/mL]	MIC (Staphylococcus aureus [2]) [µg/mL]	MIC (Staphylococcus aureus [3]) [µg/mL]	MIC (Pseudomonas aeruginosa [4]) [µg/mL]	DHP-I stability [5]	Structure (SMILES)	ED50 (Mus musculus [6]) [mg/kg]	ED50 (Mus musculus [7]) [mg/kg]	ED50 (Mus musculus [8]) [mg/kg]
0.1	0.78	3.13	0.05	25	0.39	0.32	C[C@@H](O)[C@H]1C(=O)N2C(C(=O)O)=C(S[C@@H]3CN[C@H](Cc4c[n+](C)nn4C)C3)[C@H](C)[C@H]12.[Cl-]	–	–	–
0.1	0.78	3.13	0.1	25	0.39	0.17	C[C@@H](O)[C@H]1C(=O)N2C(C(=O)O)=C(S[C@@H]3CN[C@H](Cc4c[n+](CCO)nn4C)C3)[C@H](C)[C@H]12.[Cl-]	–	–	–
0.1	1.56	3.13	0.05	12.5	0.39	0.25	C[C@@H](O)[C@H]1C(=O)N2C(C(=O)O)=C(S[C@@H]3CN[C@H](Cc4c[n+](CCO)cn4C)C3)[C@H](C)[C@H]12.[Cl-]	–	–	–
0.1	0.78	6.25	0.1	12.5	0.39	0.14	C[C@@H](O)[C@H]1C(=O)N2C(C(=O)O)=C(S[C@@H]3CN[C@H](Cc4cn(C)[n+](CC(=O)O)c4)C3)[C@H](C)[C@H]12.[Cl-]	–	–	–
0.1	0.78	3.13	0.05	12.5	0.2	0.31	C[C@@H](O)[C@H]1C(=O)N2C(C(=O)O)=C(S[C@@H]3CN[C@H](Cc4c[n+](CC(N)=O)cn4C)C3)[C@H](C)[C@H]12.[Cl-]	–	–	–
0.2	0.78	1.56	0.05	6.25	0.2	0.42	C[C@@H](O)[C@H]1C(=O)N2C(C(=O)O)=C(S[C@@H]3CN[C@H](Cc4cc[n+](C)n4C)C3)[C@H](C)[C@H]12.[Cl-]	–	–	–
0.2	0.78	3.13	0.05	6.25	0.2	0.41	C[C@@H](O)[C@H]1C(=O)N2C(C(=O)O)=C(S[C@@H]3CN[C@H](Cc4c[n+](C)cn4C)C3)[C@H](C)[C@H]12.[Cl-]	–	–	–
0.2	0.78	3.13	< 0.025	6.25	0.2	0.29	C[C@@H](O)[C@H]1C(=O)N2C(C(=O)O)=C(S[C@@H]3CN[C@H](Cc4cn(C)[n+](CC(N)=O)c4)C3)[C@H](C)[C@H]12.[Cl-]	–	–	–
0.1	0.39	3.13	< 0.025	6.25	0.1	0.35	C[C@@H](O)[C@H]1C(=O)N2C(C(=O)O)=C(S[C@@H]3CN[C@H](Cc4cc[n+](CC(N)=O)n4C)C3)[C@H](C)[C@H]12.[Cl-]	–	–	–
0.05	–	3.13	–	–	–	0.61	C[C@@H](O)[C@H]1C(=O)N2C(C(=O)O)=C(S[C@@H]3CN[C@H](Cc4cc[n+](CC(=O)O)n4C)C3)[C@H](C)[C@H]12.[Cl-]	–	–	–
0.2	0.78	1.56	0.05	6.25	0.2	0.27	C[C@@H](O)[C@H]1C(=O)N2C(C(=O)O)=C(S[C@@H]3CN[C@H](Cc4c[n+](C)c(CO)n4C)C3)[C@H](C)[C@H]12.[Cl-]	–	–	–
0.1	–	1.56	–	–	–	0.3	C[C@@H](O)[C@H]1C(=O)N2C(C(=O)O)=C(S[C@@H]3CN[C@H](Cc4c[n+](C)c(C(N)=O)n4C)C3)[C@H](C)[C@H]12.[Cl-]	–	–	–
